This note sets out measurements from PubChem BioAssay (NCI).

“And” between values parts separate entries of the source, which are not always exact repeats. Equal entries are not always repeated.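 Each compound was tested at five concentrations against cells in 96-well plates for 48 hours. Here, GI50 denotes the concentration required for 50% inhibition of growth. At the TGI there is no net growth.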

Common to all, as to test: DTP human tumour cell line panel, 48 h
Assay [1] relates to NCI-H226 lung.
Assay [2] has as its system SNB-75 CNS.
Assay [3] deals with SNB-19 CNS.
Assay [4] deals with SF-268 CNS.
Assay [5] has as its system K-562 leukemia.
Assay [6] has as its system CAKI-1 renal.
Assay [7] has as its system SF-295 CNS.
Assay [8] has as its system TK-10 renal.

With `O=C(COc1cccc(/C=C2\COc3ccccc3C2=O)c1)c1ccccc1`, the GI50 in assay [1] was 12.3 µM; in assay [2], 11.5 µM; in assay [3], 11.8 µM; in assay [4], 3.23 µM; in assay [5] it was 2.05 µM; in assay [6], 3.32 µM. Besides, the figures for the GI50 in assay [7] and in assay [8] were 1.93 µM and 3.6 µM, respectively. The concentration for total growth inhibition (TGI) was determined as 25.4 µM in assay [1]; 24.7 µM in assay [2]; 24 µM in assay [3]; 10.2 µM in assay [4]; 5.65 µM in assay [5]; 12.7 µM in assay [6]. Moreover, the TGI in assay [7] amounted to 15.8 µM; in assay [8], 11.2 µM.

As to `CON=C1C[C@]2(C[C@@H]3C[C@@H](C/C=C(\C)C[C@@H](C)/C=C/C=C4\CO[C@@H]5[C@H](O)C(C)=C[C@@H](C(=O)O3)[C@]45O)O2)O[C@H](/C(C)=C/C(C)C)[C@H]1C`, the GI50 in assay [1] was 16 µM; in assay [2] it was 18.7 µM; in assay [3] it was 15.7 µM; in assay [4], 13 µM; in assay [5] it was 3.69 µM; in assay [6] it was 7.52 µM. The GI50 in assay [7] is 9.16 µM; in assay [8], 17.8 µM. In addition, the TGI in assay [1] was 29.8 µM; in assay [2], 35.3 µM; in assay [3] it was 35.3 µM; in assay [4], 27.5 µM; in assay [5], 10.8 µM; in assay [6], 21.6 µM. For the same compound, the figures for the TGI in assay [7] and in assay [8] were 22 µM and 33.4 µM, respectively.

Regarding `COc1cc(N2CCN(C(C)C)CC2)ccc1Nc1nc(Nc2ccc(F)cc2C(=O)NCC(O)CO)c2cc[nH]c2n1` (stereo not given), the GI50 in assay [1] was 5.04 µM; in assay [2], 13.3 µM; in assay [3] it was 7.41 µM; in assay [4], 6.89 µM; in assay [5], greater than 19.9 µM; in assay [6] it was greater than 25 µM. Further, the GI50 was 11.4 µM in assay [7] and 11.9 µM in assay [8]. For the same compound, the TGI in assay [1] was 19.9 µM; in assay [2] it was greater than 25 µM; in assay [3], greater than 25 µM; in assay [4], greater than 25 µM; in assay [5], greater than 25 µM; in assay [6], greater than 25 µM. In addition, the total growth inhibition concentration (TGI) in assay [7] and in assay [8] was greater than 25 µM in each case.

Consider `[N-]=[N+]=NCCCn1c2c(c3ccc([N+](=O)[O-])cc3c1=O)C(=O)c1cc(I)ccc1-2`, for which the GI50 in assay [1] is 14.3 µM; in assay [2], 8.63 µM; in assay [3] it was 4.62 µM; in assay [4], 2.58 µM; in assay [5], 5.15 µM; in assay [6] it was 9.38 µM. The results for the GI50 in assay [7] and in assay [8] were 1.54 µM and 71.9 µM, respectively. The total growth inhibition concentration (TGI) in assay [1], in assay [2], in assay [3], in assay [4], in assay [5] and in assay [6] was greater than 100 µM in each case. Also, the concentration for total growth inhibition (TGI) in assay [7] and in assay [8] was greater than 100 µM in each case.

On to `CN(C)c1ccc(/C=C(\C#N)c2ccccc2)cc1`, for which the GI50 in assay [1] was 4.7 µM and 13.3 µM and 24 µM; in assay [2], 0.361 µM and 0.626 µM and 0.299 µM; in assay [3], 0.481 µM and 0.68 µM and 0.92 µM; in assay [5], 0.194 µM and 0.337 µM and 0.35 µM; in assay [6] it was 0.244 µM and 0.586 µM and 0.591 µM; in assay [7], 0.225 µM and 0.421 µM. For the same compound, in assay [8], the GI50 is 0.553 µM and 0.999 µM and 4.9 µM. Besides, the TGI is greater than 100 µM in assay [1]; greater than 100 µM in assay [2]; greater than 100 µM in assay [3]; greater than 100 µM in assay [4]; greater than 100 µM in assay [5]; 0.99 µM and 5.97 µM in assay [7]. Moreover, the TGI in assay [8] was greater than 100 µM.

As to `CCCCCCCCCCCCNC(=O)N[C@H](C(=O)N[C@H]1/C=C/CCNC(=O)/C=C/[C@H](C)NC1=O)C(C)C`, the 50% growth inhibitory concentration (GI50) in assay [1] is 0.0582 µM; in assay [2], 0.0345 µM; in assay [3], 0.0647 µM; in assay [4], 0.0543 µM; in assay [5] it was 0.456 µM; in assay [6], 4.95 µM. Moreover, the GI50 in assay [7] was 0.239 µM; in assay [8] it was 0.0352 µM. The TGI in assay [1] was 0.167 µM; in assay [2], 0.155 µM; in assay [3] it was 15 µM; in assay [4] it was 1.04 µM; in assay [5] it was 15.1 µM; in assay [6], greater than 100 µM. Besides, the results for the concentration for total growth inhibition (TGI) in assay [7] and in assay [8] were 1.45 µM and 0.191 µM, respectively.

As for `Cc1ccc(S(=O)(=O)OCC(=O)Nc2ccc(C(=O)O)c(O)c2)cc1`, the GI50 is 30.9 µM in assay [1]; 47.3 µM in assay [2]; 66.5 µM in assay [3]; 19.5 µM in assay [4]; 28.9 µM in assay [5]; 14.7 µM in assay [6]. Also, the results for the GI50 in assay [7] and in assay [8] were 167 µM and 207 µM, respectively. Also, the TGI worked out at 139 µM in assay [1]; 185 µM in assay [2]; 242 µM in assay [3]; 53.5 µM in assay [4]; 120 µM in assay [5]; 91.1 µM in assay [6]. In addition, the TGI was determined as 322 µM in assay [7] and 464 µM in assay [8].

In the case of `COc1ccc(NC(=S)C#N)cc1`, the TGI in assay [1], in assay [2], in assay [3], in assay [4], in assay [5] and in assay [6] was greater than 100 µM each time. Besides, the TGI in assay [7] and in assay [8] was greater than 100 µM each time.

As to `O=C(Nc1ccc(Oc2ccc(NC(=O)Nc3ccccc3Cl)cc2)cc1)Nc1ccccc1Cl`, the GI50 in assay [1] was 15.6 µM; in assay [2], 12.2 µM; in assay [3] it was 17 µM; in assay [4] it was 8.11 µM; in assay [5], 2.63 µM; in assay [6] it was greater than 31.9 µM. The GI50 in assay [7] was 6.81 µM; in assay [8], 4.72 µM. The TGI is 49 µM in assay [1]; 37.3 µM in assay [2]; 43.8 µM in assay [3]; 55.1 µM in assay [4]; greater than 40.1 µM in assay [5]; greater than 88.2 µM in assay [6]. In addition, the total growth inhibition concentration (TGI) amounted to 33.9 µM in assay [7] and 45.1 µM in assay [8].

As for `COC1=CC(c2ccc[nH]2)=N/C1=C\c1[nH]c(C)c(C(=O)Oc2ccccc2)c1C`, the GI50 in assay [1] was 0.438 µM; in assay [2] it was 0.274 µM; in assay [3], 1.29 µM; in assay [5], 0.292 µM; in assay [6] it was 0.0679 µM; in assay [7], 0.329 µM. The GI50 in assay [8] was 0.336 µM. Further, the TGI is 1.96 µM in assay [1]; greater than 100 µM in assay [3]; greater than 100 µM in assay [5]; 1.95 µM in assay [7]; 2.55 µM in assay [8].

`Cc1cncc(-c2nc(NCCc3c[nH]c4ccccc34)c3ncn(C(C)C)c3n2)c1`: the GI50 was 4.69 µM in assay [1]; 4.87 µM in assay [2]; 11.5 µM in assay [3]; 5.93 µM in assay [4]; 4.12 µM in assay [6]; 2.74 µM in assay [7]. The GI50 in assay [8] was 10.3 µM. The concentration for total growth inhibition (TGI) stood at 20.5 µM in assay [1]; 21.1 µM in assay [2]; 46.6 µM in assay [3]; 38.6 µM in assay [4]; 30.4 µM in assay [6]; 10.8 µM in assay [7]. The TGI in assay [8] is 52.8 µM.

On to `O=C(CN1CCN(CCN2C(=O)c3cccc4cccc(c34)C2=O)CC1)Nc1ccc2ncsc2c1`, for which the GI50 is 7.58 µM in assay [1]; 9.44 µM in assay [2]; 4.5 µM in assay [3]; 6.07 µM in assay [4]; 4.91 µM in assay [6]; 4.9 µM in assay [7]. In addition, the GI50 in assay [8] was 10.5 µM. Moreover, the TGI was greater than 100 µM in assay [1]; greater than 100 µM in assay [2]; 21.7 µM in assay [3]; 25 µM in assay [4]; greater than 100 µM in assay [6]; 20.7 µM in assay [7]. The concentration for total growth inhibition (TGI) in assay [8] is 23.7 µM.

For `C/C=C(\C)c1cc(=O)c2c(C)cc3c(c2o1)C(OC)(OC(C)=O)c1c(O)c(C2CC(C)(N(C)C)C(OC(C)=O)C(C)O2)cc(C2CC(N(C)C)C(OC(C)=O)C(C)O2)c1C3=O` (stereo not given), the TGI stood at 5.03 µM in assay [1]; 6.44 µM in assay [2]; 14.1 µM in assay [3]; 4.89 µM in assay [4]; 9.39 µM in assay [6]; 14.6 µM in assay [7]. Moreover, the TGI in assay [8] is greater than 100 µM.

As for `C[C@]12CCCN1CC1=NNC(=O)c3cc(F)cc4[nH]c2c1c34`, the GI50 is 7.84 µM in assay [1]; 13.6 µM in assay [2]; 25.1 µM in assay [3]; 19 µM in assay [4]; 7.73 µM in assay [6]; 16.1 µM in assay [7]. The GI50 in assay [8] was 22.6 µM. Also, the concentration for total growth inhibition (TGI) in assay [1] was 67.7 µM; in assay [2] it was 35.9 µM; in assay [3], greater than 100 µM; in assay [4] it was 61.4 µM; in assay [6], greater than 100 µM; in assay [7], 51.1 µM. This compound also displayed a total growth inhibition concentration (TGI) in assay [8] greater than 100 µM.

What is called GI50 is the concentration that inhibits growth by half. As usually defined, the TGI is the concentration at which net growth stops.
